PMC8539310, “In Vitro Anti-HIV-1 Reverse Transcriptase and Integrase Properties of Punica granatum L. Leaves, Bark, and Peel Extracts and Their Main Compounds” (Plants, 2021)

Assays:
[1] = target: T1, HIV-1 IN in the presence of LEDGF/p75 (Human immunodeficiency virus type 1 group M subtype B, UniProt P04585); test: HTRF IN LEDGF-dependent assay; format: biochemical; details: for remaining activity at 100 µM: read-out: Percentage of control IN LEDGF-dependent activity in the presence of the indicated drug concentration; for Inhibition of HIV-1 IN LEDGF-dependent activity (in words): highest tested concentration; for IC50: pure compounds, in the presence of LEDGF, read-out: HIV-1 Integrase LEDGF-Dependent IC50
T1 construct: Recombinant IN and LEDGF/p75 proteins were expressed and purified; made in house
Description: Recombinant IN and LEDGF/p75 proteins were expressed and purified as described by Esposito et al. 2020 [67].
The IN activity was measured in the presence of LEDGF/p75 cellular cofactor in an HTRF assay. Data analysis of the assay results was performed using GraphPad Prism 9.

[2] = target: T2, HIV-1 RT-associated RNase H (Human immunodeficiency virus type 1 group M subtype B, UniProt P04585); test: RNase H polymerase independent cleavage assay; format: biochemical; details: for remaining activity at 100 µM: read-out: Percentage of control RNase H activity in the presence of the indicated drug concentration
T2 construct: HIV-1 group M subtype B heterodimeric RT; made in house
Description: HIV-1 group M subtype B heterodimeric RT was expressed and purified essentially as previously described.
HIV RT-associated RNase H activity was measured as described by Corona et al. 2016 [68] using the RNase H inhibitor RDS1759 as a control. Data analysis of the assay results was performed using GraphPad Prism 9.

[3] = test system: HIV-1 RT, wild-type and mutant; parameters: method as in PMID 23821410; details: wild-type and mutant RTs; cited from earlier work
X4-tropic HIV-1 = test system: X4-tropic HIV-1; parameters: method as in PMID 29480632; details: target cells; cited from earlier work
target cells = details: cited from earlier work
HIV-1 protease = details: cited from earlier work
[4] = test system: HIV RT DNA polymerase activity; parameters: method as in Nutan et al. 2013 51; details: ref Nutan et al. 2013 51; cited from earlier work
[5] = test system: HIV-1 infection in Jurkat cells; parameters: method as in PMID 22140483; details: cited from earlier work
H9 lymphocytes = test system: H9 lymphocytes; parameters: method as in PMID 1698933; details: cited from earlier work
HIV-1 in H9 lymphocytes = test system: HIV-1 in H9 lymphocytes; parameters: method as in PMID 1698933; details: infected H9 lymphocytes; cited from earlier work

Structure (SMILES): O=c1cc(-c2ccc(O)cc2)oc2cc(O[C@@H]3O[C@H](CO)[C@@H](O)[C@H](O)[C@H]3O)cc(O)c12 [Apigenin 7-O-glucoside]
- remaining activity at 100 µM [1]: 100%
- Inhibition of HIV-1 IN LEDGF-dependent activity (in words) [1]: totally inactive
- IC50 [1]: > 100 µM
- remaining activity at 100 µM [2]: 100%
- IC50 ([2]; pure compounds): > 100 µM

Structure (SMILES): O=c1cc(-c2ccc(O)cc2)oc2cc(O)cc(O)c12 [Apigenin]
- IC50 [1]: 22 ± 3.5 µM
- IC50 ([2]; pure compounds): 16.1 ± 0.6 µM

Structure (SMILES): C=C(C)[C@@H]1CC[C@]2(C(=O)O)CC[C@]3(C)[C@H](CC[C@@H]4[C@@]5(C)CC[C@H](O)C(C)(C)[C@@H]5CC[C@]43C)[C@@H]12 [Betulinic acid]
- Inhibition of HIV-1 IN LEDGF-dependent activity (in words) [1]: weakly active
- IC50 [1]: 96.5 ± 3.5 µM
- IC50 ([2]; pure compounds): 2 ± 0.2 µM
- Inhibition of HIV-1 RT-associated functions [3]: inhibited

Structure (SMILES): O=c1oc2c(O)c(O)cc3c(=O)oc4c(O)c(O)cc1c4c23 [Ellagic acid]
- Suppression of replication of X4-tropic HIV-1 (X4-tropic HIV-1): able to suppress
- Cytotoxicity (target cells): without cytotoxicity
- Inhibition of HIV-1 protease expression (HIV-1 protease): ability to inhibit
- IC50 [1]: 0.075 ± 0.0005 µM
- IC50 ([2]; pure compounds): 1.4 ± 0.11 µM
- Inhibition of HIV RT (DNA polymerase activity) [4]: inability

Structure (SMILES): O=c1cc(-c2ccc(O[C@@H]3O[C@H](CO)[C@@H](O)[C@H](O)[C@H]3O)c(O)c2)oc2cc(O)cc(O)c12 [Luteolin 4′-O-glucoside]
- remaining activity at 100 µM [1]: 100%
- Inhibition of HIV-1 IN LEDGF-dependent activity (in words) [1]: totally inactive
- IC50 [1]: > 100 µM
- remaining activity at 100 µM [2]: 100%
- IC50 ([2]; pure compounds): > 100 µM

Structure (SMILES): O=c1cc(-c2ccc(O)c(O)c2)oc2cc(O)cc(O)c12 [Luteolin]
- IC50 [1]: 6.5 ± 0.5 µM
- IC50 ([2]; pure compounds): 3.7 ± 0.5 µM
- Inhibition of HIV-1 infection [5]: capable of inhibiting

Structure (SMILES): CC1(C)CC[C@]2(C(=O)O)CC[C@]3(C)C(=CC[C@@H]4[C@@]5(C)CC[C@H](O)C(C)(C)[C@@H]5CC[C@]43C)[C@@H]2C1 [Oleanolic acid]
- Inhibition of protease expression (HIV-1 protease): inhibit
- remaining activity at 100 µM [1]: 74%
- Inhibition of HIV-1 IN LEDGF-dependent activity (in words) [1]: inactive
- IC50 [1]: > 100 µM
- IC50 ([2]; pure compounds): 6.7 ± 0.4 µM

Structure (SMILES): O=C1OC2C(O)OC3COC(=O)c4cc(O)c(O)c(O)c4-c4c(O)c(O)c5oc(=O)c6c(c(O)c(O)c7oc(=O)c4c5c76)-c4c(cc(O)c(O)c4O)C(=O)OC3C2OC(=O)c2cc(O)c(O)c(O)c2-c2c1cc(O)c(O)c2O (stereo not drawn) [Punicalagins, Punicalagin α + β]
- Cytotoxicity (H9 lymphocytes): low degree of cytotoxicity
- Inhibition of HIV-1 replication (HIV-1 in H9 lymphocytes): inhibited
- IC50 [1]: 0.065 µM
- HIV-1 RT-Associated RNase H IC50 ([2]; pure compounds): 0.12 ± 0.00 µM

Structure (SMILES): CCOC(=O)C(=O)CC(=O)/C=C/c1cccn1Cc1ccccc1Cl [RDS1759, reference compound]
- HIV-1 RT-Associated RNase H IC50 ([2]; reference compound of Table 1, footnote c: expressed in µM): 10.7 ± 0.9^c µM

Structure (SMILES): C[C@H]1[C@H](C)CC[C@]2(C(=O)O)CC[C@]3(C)C(=CC[C@@H]4[C@@]5(C)CC[C@H](O)C(C)(C)[C@@H]5CC[C@]43C)[C@H]12 [Ursolic acid]
- Inhibition of protease expression (HIV-1 protease): inhibit
- remaining activity at 100 µM [1]: 68%
- Inhibition of HIV-1 IN LEDGF-dependent activity (in words) [1]: inactive
- IC50 [1]: > 100 µM
- IC50 ([2]; pure compounds): 5.7 ± 0.1 µM
